In PMC6941952, “A homogeneous bioluminescent immunoassay to probe cellular signaling pathway regulation” (Communications Biology, 2020):
“And” between values parts separate entries of the source, which are not always exact repeats. Equal entries are not always repeated.

Tested on: STAT3 Phospho-Tyr705
Experiment: NanoBiT pSTAT3 cell-based immunoassay in A431 cells
Parameters: species or system human
Settings: IL-6 10 ng/ml; for P-STAT3 (% compared to no inhibitor): replicate
Method: Prior to NanoBiT Cell-Based Immunoassay, 50,000 cells were seeded in 160 µl of complete growth media per well of a 96-well plate and incubated overnight. […] If necessary, the cell culture media were replaced with serum-free media after the cells were stably adherent on the plate and incubated overnight. To treat cells with activators or inhibitors, medium was changed to 30 µl of medium containing inhibitors. If activation of a specific pathway is needed, the cells were stimulated with 10 µl of medium containing activators. To lyse the cells, 10 µl of lysis buffer containing 0.1% digitonin diluted in 1X immunoassay buffer with protease and phosphatase inhibitors was added and the plates were mixed vigorously for 20 min. Then, 50 µl of an antibody mix containing two primary antibodies against the target protein and NanoBiT detecting antibodies (0.3 µl each per well), diluted in 1X immunoassay buffer was added to the lysates. The plates were incubated at 23 °C for 90 min, followed by the addition of 25 µl of Nano-Glo® reagent consisting of Nano-Glo® Luciferase Assay Substrate mixed with 1X immunoassay buffer. Luminescence was measured using a plate-reading luminometer.
Single dose or dose response inhibitor treatments were performed prior to activation of the pathways as follows. For IκBα, the cells were treated in 30 µl medium with IKK16 or MG132 for 60 min before the addition of 10 µl of DMEM containing appropriate concentration of TNFα. To measure phosphorylation of AKT or STAT3, the corresponding NanoBiT immunoassays were developed with MCF-7 or A431 cells, respectively, according the same scheme used to develop the IκBα assay using the primary antibodies for AKT and STAT3 described in the reagents section. […] Treatment with LY294002 was performed in 30 µl medium and cells were incubated for 60 min before the addition of 1 µM Insulin. To measure STAT3 phosphorylation, A431 cells were incubated overnight in DMEM medium without serum. […] After addition of the stimulators, the cells were incubated for additional times as follows. IκBα phosphorylation and degradation analyses required both time courses and single time points as described in figures. […] The NanoBiT immunoassay protocol was followed as described above.
All 96-well assay plates were read using a GloMax® 96 Microplate Luminometer from Promega. The instrument was set to 0.5 s integration time. In order to obtain net change of signal, the reagent background values (signal from the well containing all reagent except primary antibodies) were subtracted from the sample values. To plot and analyze the data, Microsoft Excel and GraphPad Prism® Software were used. IC50 values were determined by using a nonlinear regression fit to a sigmoidal dose response (variable slope).

## CN(C)C(=O)/C(C#N)=C/c1ccc(-c2nc3cnc4[nH]ccc4c3n2C2CCCCC2)o1 [FM-381]
Inhibitor 0.0190735 nM
  P-STAT3 (% compared to no inhibitor) Average: 105.1%
  P-STAT3 Raw data: 278100 and 296300 and 285800
  P-STAT3 Subtract reagent background: 177250 and 195450 and 184950
  P-STAT3 (% compared to no inhibitor): 88.0% and 120.5% and 106.8%
Inhibitor 0.038147 nM
  P-STAT3 (% compared to no inhibitor) Average: 92.2%
  P-STAT3 Raw data: 270700 and 268700 and 257500
  P-STAT3 Subtract reagent background: 168850 and 166850 and 155650
  P-STAT3 (% compared to no inhibitor): 83.9% and 102.9% and 89.9%
Inhibitor 0.0762939 nM
  P-STAT3 (% compared to no inhibitor) Average: 92.0%
  P-STAT3 Raw data: 272300 and 259800 and 258800
  P-STAT3 Subtract reagent background: 172505 and 160005 and 159005
  P-STAT3 (% compared to no inhibitor): 85.7% and 98.6% and 91.8%
Inhibitor 0.152588 nM
  P-STAT3 (% compared to no inhibitor) Average: 93.2%
  P-STAT3 Raw data: 261700 and 262700 and 269600
  P-STAT3 Subtract reagent background: 162310 and 163310 and 170210
  P-STAT3 (% compared to no inhibitor): 80.6% and 100.7% and 98.3%
Inhibitor 0.305176 nM
  P-STAT3 (% compared to no inhibitor) Average: 90.6%
  P-STAT3 Raw data: 244400 and 266100 and 264700
  P-STAT3 Subtract reagent background: 145940 and 167640 and 166240
  P-STAT3 (% compared to no inhibitor): 72.5% and 103.3% and 96.0%
Inhibitor 0.610352 nM
  P-STAT3 (% compared to no inhibitor) Average: 92.3%
  P-STAT3 Raw data: 253900 and 276500 and 252400
  P-STAT3 Subtract reagent background: 156070 and 178670 and 154570
  P-STAT3 (% compared to no inhibitor): 77.5% and 110.1% and 89.2%
Inhibitor 1.2207 nM
  P-STAT3 (% compared to no inhibitor) Average: 95.1%
  P-STAT3 Raw data: 278300 and 261300 and 251600
  P-STAT3 Subtract reagent background: 184135 and 167135 and 157435
  P-STAT3 (% compared to no inhibitor): 91.5% and 103.0% and 90.9%
Inhibitor 2.44141 nM
  P-STAT3 (% compared to no inhibitor) Average: 87.8%
  P-STAT3 Raw data: 238200 and 252900 and 237300
  P-STAT3 Subtract reagent background: 150835 and 165535 and 149935
  P-STAT3 (% compared to no inhibitor): 74.9% and 102.0% and 86.6%
Inhibitor 4.88281 nM
  P-STAT3 (% compared to no inhibitor) Average: 94.8%
  P-STAT3 Raw data: 243400 and 259600 and 241900
  P-STAT3 Subtract reagent background: 162830 and 179030 and 161330
  P-STAT3 (% compared to no inhibitor): 80.9% and 110.4% and 93.1%
Inhibitor 9.76562 nM
  P-STAT3 (% compared to no inhibitor) Average: 88.5%
  P-STAT3 Raw data: 219800 and 245100 and 214000
  P-STAT3 Subtract reagent background: 149750 and 175050 and 143950
  P-STAT3 (% compared to no inhibitor): 74.4% and 107.9% and 83.1%
Inhibitor 19.5312 nM
  P-STAT3 (% compared to no inhibitor) Average: 102.9%
  P-STAT3 Raw data: 297400 and 269300 and 273700
  P-STAT3 Subtract reagent background: 172850 and 196550 and 168450
  P-STAT3 (% compared to no inhibitor): 95.2% and 115.2% and 98.2%
Inhibitor 39.0625 nM
  P-STAT3 (% compared to no inhibitor) Average: 94.1%
  P-STAT3 Raw data: 266500 and 275400 and 255500
  P-STAT3 Subtract reagent background: 153650 and 164650 and 173550
  P-STAT3 (% compared to no inhibitor): 84.6% and 96.5% and 101.2%
Inhibitor 78.125 nM
  P-STAT3 (% compared to no inhibitor) Average: 88.7%
  P-STAT3 Raw data: 243600 and 255500 and 264900
  P-STAT3 Subtract reagent background: 165105 and 143805 and 155705
  P-STAT3 (% compared to no inhibitor): 90.9% and 84.3% and 90.8%
Inhibitor 156.25 nM
  P-STAT3 (% compared to no inhibitor) Average: 85.8%
  P-STAT3 Raw data: 244000 and 250600 and 253000
  P-STAT3 Subtract reagent background: 153610 and 144610 and 151210
  P-STAT3 (% compared to no inhibitor): 84.6% and 84.8% and 88.2%
Inhibitor 312.5 nM
  P-STAT3 (% compared to no inhibitor) Average: 74.2%
  P-STAT3 Raw data: 227000 and 243200 and 212500
  P-STAT3 Subtract reagent background: 114040 and 128540 and 144740
  P-STAT3 (% compared to no inhibitor): 62.8% and 75.3% and 84.4%
Inhibitor 625 nM
  P-STAT3 (% compared to no inhibitor) Average: 60.8%
  P-STAT3 Raw data: 189200 and 199400 and 224200
  P-STAT3 Subtract reagent background: 126370 and 91370 and 101570
  P-STAT3 (% compared to no inhibitor): 69.6% and 53.6% and 59.2%
Inhibitor 2500 nM
  P-STAT3 (% compared to no inhibitor) Average: 22.9%
  P-STAT3 Raw data: 128000 and 133500 and 120100
  P-STAT3 Subtract reagent background: 32735 and 40635 and 46135
  P-STAT3 (% compared to no inhibitor): 18.0% and 23.8% and 26.9%
Inhibitor 5000 nM
  P-STAT3 (% compared to no inhibitor) Average: 12.0%
  P-STAT3 Raw data: 101000 and 109100 and 93870
  P-STAT3 (% compared to no inhibitor): 7.3% and 12.0% and 16.6%
Inhibitor 10000 nM
  P-STAT3 (% compared to no inhibitor) Average: 7.8%
  P-STAT3 Raw data: 84360 and 88520 and 77950
  P-STAT3 (% compared to no inhibitor): 4.3% and 8.4% and 10.8%
Inhibitor […]
  P-STAT3 (% compared to no inhibitor) Average: 41.3%
